For six molecules, T/C results are on record in PubChem BioAssay AID192 (DTP/NCI, 2004).

The test system of the test is BDF1 mice, B16 melanoma ip, median survival T/C. Kind of test: NCI In Vivo Anticancer Drug Screen. Data for tumor model B16 Melanoma (intraperitoneal) in B6D2F1 (BDF1) mice. The following applies: endpoint: median survival time, higher = longer survival. The protocol:
The antitumor activity of compounds was measured in mice bearing transplantable tumors. Survival or tumor size were measured and the results are expressed as the measurement made in the treated group (T) divided by the measurement made in the vehicle treated control group (C). The tumor model used in this assay is B16 Melanoma (intraperitoneal) in B6D2F1 (BDF1) mice

The mark [1] stands for this setting: dose: 100.0 mg/kg/injection, schedule: Q01DX009 (ip), vehicle: Klucel (hydroxypropylcellulose) (HPC).
Where [2] appears, read: dose: 200.0 mg/kg/injection, schedule: Q01DX009 (ip), vehicle: Klucel (hydroxypropylcellulose) (HPC).
Setting [3] is: dose: 50.0 mg/kg/injection, schedule: Q01DX009 (ip), vehicle: saline with Tween-80.
The mark [4] stands for this setting: dose: 100.0 mg/kg/injection, schedule: Q01DX009 (ip), vehicle: saline with Tween-80.
Where [5] appears, read: dose: 200.0 mg/kg/injection, schedule: Q01DX009 (ip), vehicle: saline with Tween-80.

Where “and” joins values, the source holds several entries; their conditions need not be identical. Equal entries are not always repeated. Inconclusive results and toxic doses are left out. Numbered stars: 1 amine (or outer) side, 2 acyl side, 3 side chain; on linkers, the order of the positions; unused ones are H or OH. Bridge positions count the residues as written; N and C are the ends. Square brackets hold non-standard residues; d marks the D form. Peptide text beside a SMILES is read from it. I, II: the chains in the order shown. * marks the point of attachment. ξ: configuration not given here. Actinocin(9to1) = Cc1c2oc3c(C)ccc(C(=O)[*:1])c3nc-2c(C(=O)[*:2])c(N)c1=O; aThr = C[C@H](O)[C@H](N)C(=O)O; NMeV = CN[C@H](C(=O)O)C(C)C; ξF = NC(Cc1ccccc1)C(=O)O; ClAc = O=C(CCl)*; Sar = CNCC(=O)O

`Cc1c2oc3c(C)ccc(C(=O)N[C@@H]4C(=O)N[C@H](C(C)C)C(=O)N5CCC[C@H]5C(=O)N(C)CC(=O)N(C)[C@@H](C(C)C)C(=O)O[C@H]4C)c3nc-2c(C(=O)N[C@@H]2C(=O)N[C@H](C(C)C)C(=O)N3CCC[C@H]3C(=O)N(C)CC(=O)N(C)[C@@H](C(C)C)C(=O)O[C@H]2C)c(N)c1=O` (I: [aThr][dV]P[Sar][NMeV] / II: [aThr][dV]P[Sar][NMeV]; ester I:1-I:C, II:1-II:C; linker I:N-II:N via Actinocin(9to1)): the T/C reads like this: (dose: 0.03 mg/kg/injection, schedule: Q01DX009 (ip), vehicle: water) 157 % of control; (dose: 0.05 mg/kg/injection, schedule: Q01DX009 (ip), vehicle: water) 186 % of control; (dose: 0.05 mg/kg/injection, schedule: Q04DX003 (ip), vehicle: saline) 123 % of control and 124 % of control; (dose: 0.08 mg/kg/injection, schedule: Q01DX009 (ip), vehicle: saline) 169 % of control; (dose: 0.13 mg/kg/injection, schedule: Q01DX009 (ip), vehicle: saline) 44 % of control; (dose: 0.2 mg/kg/injection, schedule: Q04DX003 (ip), vehicle: saline) 164 % of control. Moreover, the T/C (dose: 0.22 mg/kg/injection, schedule: Q01DX009 (ip), vehicle: saline) is 42 % of control; the T/C (dose: 0.4 mg/kg/injection, schedule: Q04DX003 (ip), vehicle: saline) is 65 % of control and 69 % of control; the T/C (dose: 0.5 micrograms/kg/injection, schedule: Q01DX009 (ip), vehicle: saline) is 119 % of control; the T/C (dose: 2.0 micrograms/kg/injection, schedule: Q01DX009 (ip), vehicle: saline) was 116 % of control; the T/C (dose: 4.0 micrograms/kg/injection, schedule: Q01DX009 (ip), vehicle: saline) is 150 % of control; the T/C (dose: 6.25 micrograms/kg/injection, schedule: Q01DX009 (ip), vehicle: saline) is 101 % of control. For the same molecule, the T/C by setting is: (dose: 6.3 micrograms/kg/injection, schedule: Q01DX009 (ip), vehicle: saline) 96 % of control; (dose: 6.5 micrograms/kg/injection, schedule: Q01DX009 (ip), vehicle: saline) 120 % of control; (dose: 10.8 micrograms/kg/injection, schedule: Q01DX009 (ip), vehicle: saline) 112 % of control; (dose: 12.5 micrograms/kg/injection, schedule: Q01DX009 (ip), vehicle: water) 120 % of control; (dose: 16.0 micrograms/kg/injection, schedule: Q01DX009 (ip), vehicle: saline) 157 % of control; (dose: 16.0 micrograms/kg/injection, schedule: Q01DX017 (ip), vehicle: saline) 185 % of control. Further, the T/C (dose: 21.6 micrograms/kg/injection, schedule: Q01DX009 (ip), vehicle: saline + alcohol) is 123 % of control; the T/C (dose: 25.0 micrograms/kg/injection, schedule: Q01DX009 (ip), vehicle: saline + alcohol) is 120 % of control; the T/C (dose: 32.0 micrograms/kg/injection, schedule: Q01DX005 (ip), vehicle: saline) is 120 % of control; the T/C (dose: 32.0 micrograms/kg/injection, schedule: Q01DX009 (ip), vehicle: saline) is 155 % of control; the T/C (dose: 32.0 micrograms/kg/injection, schedule: Q01DX017 (ip), vehicle: saline) is 200 % of control; the T/C (dose: 36.0 micrograms/kg/injection, schedule: Q01DX009 (ip), vehicle: saline + alcohol) is 152 % of control. Besides, the T/C reads like this: (dose: 37.5 micrograms/kg/injection, schedule: Q01DX009 (ip), vehicle: saline + alcohol) 153 % of control; (dose: 37.5 micrograms/kg/injection, schedule: Q01DX009 (ip), vehicle: saline) 159 % of control; (dose: 37.5 micrograms/kg/injection, schedule: Q04DX003 (ip), vehicle: saline) 118 % of control; (dose: 38.9 micrograms/kg/injection, schedule: Q04DX003 (ip), vehicle: saline + alcohol) 123 % of control; (dose: 50.0 micrograms/kg/injection, schedule: Q01DX009 (ip), vehicle: saline + alcohol) 158 % of control; (dose: 50.0 micrograms/kg/injection, schedule: Q01DX009 (ip), vehicle: water) 152 % of control and 166 % of control. In addition, the T/C was 152 % of control and 161 % of control (dose: 60.0 micrograms/kg/injection, schedule: Q01DX009 (ip), vehicle: saline + alcohol); 152 % of control (dose: 64.0 micrograms/kg/injection, schedule: Q01DX005 (ip), vehicle: saline); 154 % of control (dose: 64.8 micrograms/kg/injection, schedule: Q04DX003 (ip), vehicle: saline + alcohol); 186 % of control (dose: 75.0 micrograms/kg/injection, schedule: Q01DX009 (ip), vehicle: saline); 123 % of control (dose: 75.0 micrograms/kg/injection, schedule: Q04DX003 (ip), vehicle: water); 175 % of control (dose: 83.0 micrograms/kg/injection, schedule: Q01DX009 (ip), vehicle: saline). In addition, the T/C (dose: 100.0 micrograms/kg/injection, schedule: Q01DX009 (ip), vehicle: saline + alcohol) is 169 % of control; the T/C (dose: 100.0 micrograms/kg/injection, schedule: Q01DX009 (ip), vehicle: water) was 175 % of control; the T/C (dose: 108.0 micrograms/kg/injection, schedule: Q04DX003 (ip), vehicle: saline + alcohol) is 150 % of control and 159 % of control and 160 % of control; the T/C (dose: 128.0 micrograms/kg/injection, schedule: Q01DX005 (ip), vehicle: saline) is 165 % of control; the T/C (dose: 128.0 micrograms/kg/injection, schedule: Q04DX003 (ip), vehicle: saline) is 150 % of control; the T/C (dose: 180.0 micrograms/kg/injection, schedule: Q04DX003 (ip), vehicle: saline + alcohol) is 164 % of control and 172 % of control and 176 % of control. The T/C reads like this: (dose: 225.0 micrograms/kg/injection, schedule: Q04DX003 (ip), vehicle: saline + alcohol) 91 % of control; (dose: 225.0 micrograms/kg/injection, schedule: Q04DX003 (ip), vehicle: saline) 159 % of control; (dose: 256.0 micrograms/kg/injection, schedule: Q04DX003 (ip), vehicle: saline) 165 % of control; (dose: 300.0 micrograms/kg/injection, schedule: Q04DX003 (ip), vehicle: saline) 168 % of control and 169 % of control; (dose: 300.0 micrograms/kg/injection, schedule: Q04DX003 (ip), vehicle: water) 106 % of control; (dose: 500.0 micrograms/kg/injection, schedule: Q04DX003 (ip), vehicle: saline + alcohol) 101 % of control. For the same molecule, the T/C runs as follows: (dose: 512.0 micrograms/kg/injection, schedule: Q01DX001 (ip), vehicle: saline) 92 % of control; (dose: 600.0 micrograms/kg/injection, schedule: Q04DX003 (ip), vehicle: saline) 231 % of control.
Take `CCc1ccccc1NC(=O)Nc1ccccc1`: the T/C runs as follows: under setting [1], 90 % of control; (dose: 100.0 mg/kg/injection, schedule: Q04DX003 (ip), vehicle: Klucel (hydroxypropylcellulose) (HPC)) 100 % of control; under setting [2], 90 % of control; (dose: 200.0 mg/kg/injection, schedule: Q04DX003 (ip), vehicle: Klucel (hydroxypropylcellulose) (HPC)) 100 % of control; (dose: 400.0 mg/kg/injection, schedule: Q04DX003 (ip), vehicle: Klucel (hydroxypropylcellulose) (HPC)) 92 % of control.
For the molecule `CNC(=S)N(C1CCCCC1)C1CCCCC1`, the T/C was 101 % of control under setting [3], 95 % of control under setting [4] and 98 % of control under setting [5].
With `O=C(CCl)NCC(=O)NC(Cc1ccccc1)C(=O)O` (stereo not drawn) (ClAc-Gly-[ξF]-OH), the T/C is 103 % of control under setting [3], 100 % of control under setting [4] and 93 % of control under setting [5].
Regarding `Nc1nnc[se]1`, the T/C runs as follows: (dose: 3.13 mg/kg/injection, schedule: Q01DX009 (ip), vehicle: saline with Tween-80) 106 % of control; (dose: 6.25 mg/kg/injection, schedule: Q01DX009 (ip), vehicle: saline with Tween-80) 97 % of control; (dose: 12.5 mg/kg/injection, schedule: Q01DX009 (ip), vehicle: saline with Tween-80) 102 % of control; (dose: 25.0 mg/kg/injection, schedule: Q01DX009 (ip), vehicle: saline with Tween-80) 115 % of control.
On to `C=C(C)C(=O)Nc1c(C)cccc1C`, for which the T/C was 102 % of control (dose: 50.0 mg/kg/injection, schedule: Q01DX009 (ip), vehicle: Klucel (hydroxypropylcellulose) (HPC)); 107 % of control under setting [1]; 108 % of control under setting [2].
